Like-named read-outs stand apart in the source and are kept apart here.
Columns and labels:
JAK-2 enzyme = JAK-2 enzyme (Homo sapiens, UniProt O60674); assay: JAK2 inhibition assay (radiometric 33P filter assay); type: biochemical
Method: (§1) Compounds were screened for their ability to inhibit JAK using the assay shown below. Reactions were carried out in a kinase buffer containing 100 mM HEPES (pH 7.4), 1 mM DTT, 10 mM MgCl2, 25 mM NaCl, and 0.01% BSA.
(§2) Substrate concentrations in the assay were 5 μM ATP (200 uCi/μmole ATP) and 1 μM poly(Glu)4Tyr. Reactions were carried out at 25° C. and 1 nM JAK3.
(§3) To each well of a 96 well polycarbonate plate was added 1.5 μl of a candidate JAK3 inhibitor along with 50 μl of kinase buffer containing 2 μM poly(Glu)4Tyr and 10 μM ATP. This was then mixed and 50 μl of kinase buffer containing 2 nM JAK3 enzyme was added to start the reaction. After 20 minutes at room temperature (25° C.), the reaction was stopped with 50 μl of 20% trichloroacetic acid (TCA) that also contained 0.4 mM ATP. The entire contents of each well were then transferred to a 96 well glass fiber filter plate using a TomTek Cell Harvester. After washing, 60 μl of scintillation fluid was added and ^33P incorporation detected on a Perkin Elmer TopCount.
The assays were as described above in Example 25 except that JAK-2 enzyme was used, the final poly(Glu)4Tyr concentration was 15 μM, and final ATP concentration was 12 μM.

JAK3 = target: T1, JAK3 (Homo sapiens, UniProt P52333); assay: JAK3 inhibition assay (radiometric 33P filter assay); type: biochemical
T1 sequence (P52333 1-1124): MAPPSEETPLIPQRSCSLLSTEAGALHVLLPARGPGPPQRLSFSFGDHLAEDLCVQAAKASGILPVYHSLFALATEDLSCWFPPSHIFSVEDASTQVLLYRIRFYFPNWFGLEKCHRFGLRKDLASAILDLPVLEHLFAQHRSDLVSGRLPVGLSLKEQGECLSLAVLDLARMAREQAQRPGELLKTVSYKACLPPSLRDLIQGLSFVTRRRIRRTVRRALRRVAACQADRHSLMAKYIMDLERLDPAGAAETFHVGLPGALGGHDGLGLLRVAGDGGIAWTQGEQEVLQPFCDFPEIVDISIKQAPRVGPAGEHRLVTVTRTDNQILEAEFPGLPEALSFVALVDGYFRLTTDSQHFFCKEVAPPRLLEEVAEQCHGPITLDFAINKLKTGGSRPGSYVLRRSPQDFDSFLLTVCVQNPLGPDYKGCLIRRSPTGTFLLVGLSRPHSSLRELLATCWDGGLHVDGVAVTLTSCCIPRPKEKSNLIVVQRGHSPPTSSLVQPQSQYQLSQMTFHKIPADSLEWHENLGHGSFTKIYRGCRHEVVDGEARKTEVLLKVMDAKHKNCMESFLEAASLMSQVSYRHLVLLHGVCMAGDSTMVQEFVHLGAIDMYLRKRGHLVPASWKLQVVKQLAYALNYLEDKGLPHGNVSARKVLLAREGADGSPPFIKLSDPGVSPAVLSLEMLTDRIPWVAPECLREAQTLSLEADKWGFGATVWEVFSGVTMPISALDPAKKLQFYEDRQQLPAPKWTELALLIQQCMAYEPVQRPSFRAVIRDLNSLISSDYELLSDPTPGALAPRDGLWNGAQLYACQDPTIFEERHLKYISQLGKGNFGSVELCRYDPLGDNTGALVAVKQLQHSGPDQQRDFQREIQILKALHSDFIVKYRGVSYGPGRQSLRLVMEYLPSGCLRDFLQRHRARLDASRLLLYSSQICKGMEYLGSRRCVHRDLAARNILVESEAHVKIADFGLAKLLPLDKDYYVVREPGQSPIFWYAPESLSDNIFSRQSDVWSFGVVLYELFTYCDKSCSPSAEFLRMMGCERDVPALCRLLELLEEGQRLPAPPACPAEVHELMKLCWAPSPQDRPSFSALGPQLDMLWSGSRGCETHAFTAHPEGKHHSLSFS
Method: as §1, §2, §3

[1] = 15 μM poly(Glu)4Tyr, 12 μM ATP, read-out: JAK2 inhibition data (Ki)
[2] = 1 μM poly(Glu)4Tyr, 5 μM ATP, 1 nM JAK3, 25° C., read-out: JAK3 inhibition data (Ki)

Sequence of JAK-2 enzyme (O60674 whole entry, species assumed): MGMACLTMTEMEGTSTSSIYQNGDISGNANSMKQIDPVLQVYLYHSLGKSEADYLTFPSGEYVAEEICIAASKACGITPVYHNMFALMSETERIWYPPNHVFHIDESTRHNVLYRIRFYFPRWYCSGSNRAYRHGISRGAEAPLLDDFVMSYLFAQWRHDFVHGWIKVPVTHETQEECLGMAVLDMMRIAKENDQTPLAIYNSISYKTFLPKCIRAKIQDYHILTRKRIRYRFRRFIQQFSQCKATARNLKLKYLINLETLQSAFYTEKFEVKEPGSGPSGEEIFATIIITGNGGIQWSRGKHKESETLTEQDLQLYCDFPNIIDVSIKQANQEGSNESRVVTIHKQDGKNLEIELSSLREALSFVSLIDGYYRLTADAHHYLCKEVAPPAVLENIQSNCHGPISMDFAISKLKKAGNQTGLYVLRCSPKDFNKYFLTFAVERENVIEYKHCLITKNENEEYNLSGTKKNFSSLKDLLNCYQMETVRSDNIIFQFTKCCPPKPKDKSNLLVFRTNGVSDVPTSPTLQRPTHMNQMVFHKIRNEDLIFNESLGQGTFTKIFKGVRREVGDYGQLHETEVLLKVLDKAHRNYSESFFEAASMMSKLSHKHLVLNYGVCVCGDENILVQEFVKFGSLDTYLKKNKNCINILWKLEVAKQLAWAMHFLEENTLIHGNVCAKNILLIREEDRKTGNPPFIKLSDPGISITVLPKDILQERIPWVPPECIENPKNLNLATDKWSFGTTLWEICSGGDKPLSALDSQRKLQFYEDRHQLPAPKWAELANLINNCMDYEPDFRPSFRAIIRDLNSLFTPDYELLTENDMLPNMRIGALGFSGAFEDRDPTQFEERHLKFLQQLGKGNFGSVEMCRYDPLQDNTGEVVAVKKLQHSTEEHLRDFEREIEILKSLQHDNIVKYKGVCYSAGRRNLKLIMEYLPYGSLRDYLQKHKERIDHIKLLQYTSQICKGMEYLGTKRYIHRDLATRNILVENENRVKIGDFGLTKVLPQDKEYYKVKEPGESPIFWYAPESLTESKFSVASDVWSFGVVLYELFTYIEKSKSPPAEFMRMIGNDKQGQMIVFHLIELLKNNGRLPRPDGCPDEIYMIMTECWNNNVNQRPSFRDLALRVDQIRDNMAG

Ki (JAK-2 enzyme; [1]) | Ki (JAK3; [2]) | Structure (SMILES) | Ki (JAK-2 enzyme) | Ki (JAK3)
< 50 nM | < 50 nM | CC(=O)N1CCCN(c2cc(-n3nc(Nc4ccc(NC(=O)NC(C)C)cc4)nc3N)ncn2)CC1 [Compound 86] | – | –
< 50 nM | < 50 nM | CC(=O)N1CCCN(c2cc(-n3nc(Nc4ccc(NC(=O)NC(C)(C)C)cc4)nc3N)ncn2)CC1 [Compound 87] | – | –
< 50 nM | < 50 nM | CC(=O)N1CCCN(c2cc(-n3nc(Nc4ccc(NC(=O)NC5CCCCC5)cc4)nc3N)ncn2)CC1 [Compound 88] | – | –
< 50 nM | < 50 nM | CCOC(=O)CCNC(=O)Nc1ccc(Nc2nc(N)n(-c3cc(N4CCCN(C(C)=O)CC4)ncn3)n2)cc1 [Compound 89] | – | –
< 50 nM | < 50 nM | COC(=O)Nc1ccc(Nc2nc(N)n(-c3cc(N4CCCN(C(C)=O)CC4)ncn3)n2)cc1 [Compound 90] | – | –
< 50 nM | < 50 nM | CCOC(=O)Nc1ccc(Nc2nc(N)n(-c3cc(N4CCCN(C(C)=O)CC4)ncn3)n2)cc1 [Compound 91] | – | –
< 50 nM | < 50 nM | CCCOC(=O)Nc1ccc(Nc2nc(N)n(-c3cc(N4CCCN(C(C)=O)CC4)ncn3)n2)cc1 [Compound 92] | – | –
< 50 nM | < 50 nM | CC(=O)N1CCCN(c2cc(-n3nc(Nc4ccc(NC(=O)OC(C)C)cc4)nc3N)ncn2)CC1 [Compound 93] | – | –
< 50 nM | < 50 nM | CC(=O)N1CCCN(c2cc(-n3nc(Nc4ccc(NC(=O)OCC(C)C)cc4)nc3N)ncn2)CC1 [Compound 94] | – | –
< 50 nM | < 50 nM | CC(=O)N1CCCN(c2cc(-n3nc(Nc4ccc(NC(=O)OCC(C)(C)C)cc4)nc3N)ncn2)CC1 [Compound 95] | – | –
50 to 500 nM | 50 to 500 nM | CC(=O)N1CCCN(c2cc(-n3nc(Nc4ccc(NC(=O)O[C@H]5C[C@H](C)CC[C@H]5C(C)C)cc4)nc3N)ncn2)CC1 [Compound 97] | – | –
50 to 500 nM | 50 to 500 nM | CC(=O)N1CCCN(c2cc(-n3nc(Nc4ccc(NC(=O)O[C@@H]5C[C@@H](C)CC[C@@H]5C(C)C)cc4)nc3N)ncn2)CC1 [Compound 98] | – | –
< 50 nM | < 50 nM | CC(=O)N1[C@H](C)CN(c2cc(-n3nc(Nc4ccc(N)cc4)nc3N)ccn2)C[C@@H]1C [Compound 99] | – | –
< 50 nM | < 50 nM | CC(=O)N1[C@H](C)CN(c2cc(-n3nc(Nc4ccc(NC(=O)OCC(C)C)cc4)nc3N)ccn2)C[C@@H]1C [Compound 100] | – | –
< 50 nM | < 50 nM | CCOC(=O)Nc1ccc(Nc2nc(N)n(-c3ccnc(N4C[C@@H](C)N(C(C)=O)[C@@H](C)C4)c3)n2)cc1 [Compound 101] | – | –
< 50 nM | < 50 nM | CCCOC(=O)Nc1ccc(Nc2nc(N)n(-c3ccnc(N4C[C@@H](C)N(C(C)=O)[C@@H](C)C4)c3)n2)cc1 [Compound 102] | – | –
< 50 nM | < 50 nM | CC(=O)N1[C@H](C)CN(c2cc(-n3nc(Nc4ccc(NC(=O)OC(C)C)cc4)nc3N)ccn2)C[C@@H]1C [Compound 103] | – | –
< 50 nM | < 50 nM | CC(=O)N1[C@H](C)CN(c2cc(-n3nc(Nc4ccc(NC(=O)OCC(C)(C)C)cc4)nc3N)ccn2)C[C@@H]1C [Compound 104] | – | –
< 50 nM | < 50 nM | CCNC(=O)Nc1ccc(Nc2nc(N)n(-c3ccnc(N4C[C@@H](C)N(C(C)=O)[C@@H](C)C4)c3)n2)cc1 [Compound 105] | – | –
< 50 nM | < 50 nM | CCCNC(=O)Nc1ccc(Nc2nc(N)n(-c3ccnc(N4C[C@@H](C)N(C(C)=O)[C@@H](C)C4)c3)n2)cc1 [Compound 106] | – | –
< 50 nM | < 50 nM | CC(=O)N1[C@H](C)CN(c2cc(-n3nc(Nc4ccc(NC(=O)NC(C)C)cc4)nc3N)ccn2)C[C@@H]1C [Compound 107] | – | –

Ki (JAK-2 enzyme; [1]) | Ki (JAK3; [2]) | Structure (SMILES) | Ki (JAK-2 enzyme) | Ki (JAK3)
< 50 nM | < 50 nM | CC(=O)N1[C@H](C)CN(c2cc(-n3nc(Nc4ccc(NC(=O)NC(C)(C)C)cc4)nc3N)ccn2)C[C@@H]1C [Compound 108] | – | –
< 50 nM | < 50 nM | CC(=O)N1[C@H](C)CN(c2cc(-n3nc(Nc4ccc(NC(=O)OC(C)(C)C)cc4)nc3N)ccn2)C[C@@H]1C [Compound 109] | – | –
< 50 nM | < 50 nM | CC(=O)N1[C@H](C)CN(c2cc(-n3nc(Nc4ccc(NC(=O)CCC(C)C)cc4)nc3N)ccn2)C[C@@H]1C [Compound 110] | – | –
< 50 nM | < 50 nM | CC(=O)N1[C@H](C)CN(c2cc(-n3nc(Nc4ccc(NC(=O)CC(C)C)cc4)nc3N)ccn2)C[C@@H]1C [Compound 111] | – | –
< 50 nM | < 50 nM | CC(=O)Nc1ccc(Nc2nc(N)n(-c3cc(N4C[C@@H](C)N(C(C)=O)[C@@H](C)C4)ncn3)n2)cc1 [Compound 112] | – | –
< 50 nM | < 50 nM | CCOC(=O)N1CCN(c2ccc(Nc3nc(N)n(-c4ccnc(N5C[C@@H](C)N(C(C)=O)[C@@H](C)C5)c4)n3)cc2)CC1 [Compound 113] | – | –
< 50 nM | < 50 nM | CC(=O)N1[C@H](C)CN(c2cc(-n3nc(Nc4ccc(N(C)C(=O)OC(C)(C)C)cc4)nc3N)ncn2)C[C@@H]1C [Compound 114] | – | –
< 50 nM | < 50 nM | CC(=O)N1CCCN(c2cc(-n3nc(Nc4ccc(N(C)C(=O)OC(C)(C)C)cc4)nc3N)ncn2)CC1 [Compound 115] | – | –
< 50 nM | < 50 nM | CNc1ccc(Nc2nc(N)n(-c3cc(N4C[C@@H](C)N(C(C)=O)[C@@H](C)C4)ncn3)n2)cc1 [Compound 116] | – | –
< 50 nM | < 50 nM | CNc1ccc(Nc2nc(N)n(-c3cc(N4CCCN(C(C)=O)CC4)ncn3)n2)cc1 [Compound 117] | – | –
< 50 nM | < 50 nM | CCCOC(=O)N(C)c1ccc(Nc2nc(N)n(-c3cc(N4C[C@@H](C)N(C(C)=O)[C@@H](C)C4)ncn3)n2)cc1 [Compound 118] | – | –
< 50 nM | < 50 nM | CC(=O)N1[C@H](C)CN(c2cc(-n3nc(Nc4ccc(N(C)C(=O)OC(C)C)cc4)nc3N)ncn2)C[C@@H]1C [Compound 119] | – | –
< 50 nM | < 50 nM | CC(=O)N1[C@H](C)CN(c2cc(-n3nc(Nc4ccc(N(C)C(=O)OCC(C)C)cc4)nc3N)ncn2)C[C@@H]1C [Compound 120] | – | –
– | – | CC(=O)N1[C@H](C)CN(c2cc(-n3nc(Nc4ccc(N(C)C(=O)Oc5ccc(C)cc5)cc4)nc3N)ncn2)C[C@@H]1C [Compound 121] | < 50 nM | < 50 nM
< 50 nM | < 50 nM | CC(C)(C)OC(=O)N1CCN(c2ccc(Nc3nc(N)n(-c4cc(N5CCCN(C(=O)CC#N)CC5)ncn4)n3)cc2)CC1 [Compound 122] | – | –
< 50 nM | < 50 nM | N#CCC(=O)N1CCCN(c2cc(-n3nc(Nc4ccc(N5CCNCC5)cc4)nc3N)ncn2)CC1 [Compound 123] | – | –
< 50 nM | < 50 nM | CCOC(=O)N1CCN(c2ccc(Nc3nc(N)n(-c4cc(N5CCCN(C(=O)CC#N)CC5)ncn4)n3)cc2)CC1 [Compound 124] | – | –
< 50 nM | < 50 nM | CCCOC(=O)N1CCN(c2ccc(Nc3nc(N)n(-c4cc(N5CCCN(C(=O)CC#N)CC5)ncn4)n3)cc2)CC1 [Compound 125] | – | –
< 50 nM | < 50 nM | COC(=O)N(C)c1ccc(Nc2nc(N)n(-c3cc(N4CCCN(C(C)=O)CC4)ncn3)n2)cc1 [Compound 126] | – | –
< 50 nM | < 50 nM | CCOC(=O)N(C)c1ccc(Nc2nc(N)n(-c3cc(N4CCCN(C(C)=O)CC4)ncn3)n2)cc1 [Compound 127] | – | –

Structure (SMILES) | Ki (JAK-2 enzyme; [1]) | Ki (JAK3; [2]) | Ki (JAK-2 enzyme) | Ki (JAK3)
CC(=O)N1CCCN(c2cc(-n3nc(Nc4ccc(NC(=O)Oc5ccc(C)cc5)cc4)nc3N)ncn2)CC1 [Compound 96] | < 50 nM | < 50 nM | – | –

From patent publication US7329652B2, “Diaminotriazole compounds useful as protein kinase inhibitors” (Vertex Pharamaceuticals Incorporated, priority 2004, dated 2008)
